Measurements taken from patent US20200360331A1, “COMPOSITIONS COMPRISING 15-HEPE AND/OR 15-HETrE AND METHODS OF TREATING OR PREVENTING CARDIOMETABOLIC DISEASE, METABOLIC SYNDROME, AND/OR RELATED DISEASES” (Afimmune Limited, priority 2019, published 2020).

Experiments:
type II TGF-β receptor = target: T1, type II TGF-β receptor (Homo sapiens, UniProt P37173); assay: Degradation of type II TGF-β receptor in HepG2 cells; type: cell-based; conditions: increasing doses for 1 hour, then 200 pM TGF-β for 48 hours
T1 construct: endogenous in cells; host or cells: HepG2
Description: The effects of 15-HEPE on TGF-β-induced signaling and cellular responses were determined. To test the effect of 15-HEPE on TGF-β-induced signaling, the activities of 15-HEPE to regulate TGF-β-stimulated Smad2 phosphorylation and nuclear translocation, both of which are key signaling events leading to TGF-β-induced cellular responses, were tested. One important biological activity of TGF-β is transcriptional activation of genes responsible for epithelial-mesenchymal transition (EMT), which is a crucial event in wound healing, tissue fibrosis, and cancer progression. The effect of 15-HEPE on TGFβ-induced epithelial mesenchymal transition related proteins (such as fibronectin, PAI-1, and N-cadherin etc.) expression in HepG2 and […] cells were assessed. HepG2 cells (human hepatoma cell line) were treated in increasing doses of 15-HEPE stage II in DMEM containing 0.1% of FBS for 1 hour and continually stimulated with or without 200 picomolar (pM) of TGF-β for 48 hours.
HepG2 cells (human hepatoma cell line) were treated in increasing doses of 15-HEPE stage II in DMEM containing 0.1% of FBS for 1 hour and continually stimulated with or without 200 picomolar (pM) of TGF-β for 48 hours. The two panels shown in FIG. 18A are two separate experiments run under the same experimental conditions.

Collagen Type 1 = assay: UUO study: quantitative RT-PCR of kidney, Collagen Type 1; type: in vivo, C57BL/6 mice; conditions: UUO mice kidney
Description: Quantitative RT-PCR: Total ribonucleic acid (RNA) was extracted from kidney samples using RNAiso (Takara Bio, Japan) according to the manufacturer's instructions. One μg of RNA was reverse-transcribed using a reaction mixture containing […] (mM) of magnesium chloride (MgCl2) (F. Hoffmann-La Roche, Switzerland), 40 U RNase inhibitor (Toyobo, Japan), 0.5 mM dNTP (Promega, USA), 6.28 μM random hexamer (Promega), 5× first strand buffer (Promega), 10 mM dithiothreitol (Invitrogen, USA) and 200 U MMLV-RT (Invitrogen) in a final volume of 20 μL. The reaction was carried out for 1 hour at 37° C., followed by 5 minutes at 99° C. Real-time PCR was performed using real-time PCR DICE and TB Green™ Premix Ex Taq™ II (Takara Bio). To calculate the relative […] (mRNA) expression level, the expression of each gene (e.g., α-SMA, TIMP-1, TGF-β and Collagen Type 1) was normalized to that of reference gene 36B4 (gene symbol: Rplp0). Information regarding the PCR-primer sets and the plate layout are described in Tables 1 and 2.

UUO mice = assay: UUO study: kidney hydroxyproline content; type: in vivo, C57BL/6 mice
Description: UUO Surgery: On day 0 of the study, UUO surgery was performed on mice under pentobarbital sodium anesthesia. The mouse's hair was first shaved and then abdomen cut open to exteriorize the mouse's left ureter. The ureter was ligated 4-0 nylon sutures at two points. The mouse's peritoneum and skin were then closed with sutures, and the mouse transferred to a clean cage until recovered from the anesthesia. Sham operated mice had their left ureter exposed but not ligated.
Measurement of Kidney Biochemistry: To quantify kidney hydroxyproline content, frozen left kidney samples were processed by an alkaline-acid hydrolysis method as follows: kidney samples were dissolved in 2 normal (N) sodium hydroxide (NaOH) at 65° C. and autoclaved at 121° C. for 20 minutes. The lysed samples (400 μL) were acid-hydrolyzed with 400 μL of 6N hydrochloride acid (HCl) at 121° C. for 20 minutes, and neutralized with 400 μL of 4N NaOH containing 10 mg/mL of activated carbon. An AC buffer (e.g., 2.2M acetic acid/0.48M citric acid, 400 μL) was added to the samples, followed by centrifugation to collect the supernatant. A standard curve of hydroxyproline was constructed with serial dilutions of trans-4-hydroxy-L-proline (Sigma-Aldrich, USA) starting at 16 μg/mL. The prepared samples and standards (e.g., each 400 μL) were mixed with 400 μL chloramine T solution (Wako Pure Chemical Industries, Japan) and incubated for 25 minutes at room temperature. The samples were then mixed with Ehrlich's solution (e.g., 400 μL) and heated at 65° C. for 20 minutes to develop the color. After samples were cooled on ice and centrifuged to remove precipitates, the optical density of each supernatant was measured at 560 nanometers (nm). The concentrations of hydroxyproline were calculated from the hydroxyproline standard curve. Protein concentrations of kidney samples were determined using a bicinchoninic (BCA) protein assay kit (Thermo Fisher Scientific, USA) and used to normalize the calculated hydroxyproline values. Kidney hydroxyproline contents were expressed as microgram (μg) per mg protein.

T1 sequence (P37173 23-567): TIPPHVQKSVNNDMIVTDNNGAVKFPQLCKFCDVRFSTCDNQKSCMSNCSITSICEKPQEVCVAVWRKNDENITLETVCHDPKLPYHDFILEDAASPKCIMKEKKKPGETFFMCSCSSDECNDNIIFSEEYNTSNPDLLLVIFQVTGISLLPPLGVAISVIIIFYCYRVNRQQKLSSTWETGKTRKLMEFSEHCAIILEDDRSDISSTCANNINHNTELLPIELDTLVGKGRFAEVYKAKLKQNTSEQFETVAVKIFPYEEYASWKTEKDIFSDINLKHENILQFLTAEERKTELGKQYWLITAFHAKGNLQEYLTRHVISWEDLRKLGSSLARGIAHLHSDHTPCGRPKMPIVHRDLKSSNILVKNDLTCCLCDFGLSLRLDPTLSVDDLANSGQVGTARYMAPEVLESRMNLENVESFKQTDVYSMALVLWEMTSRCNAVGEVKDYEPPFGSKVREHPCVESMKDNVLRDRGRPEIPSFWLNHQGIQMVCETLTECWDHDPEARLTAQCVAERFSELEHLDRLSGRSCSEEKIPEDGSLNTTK

## CC/C=C\CC(O)/C=C/C=C\C/C=C\C/C=C\CCCC(=O)O (stereo not shown) [DS102, 15-hydroxy-eicosa-5Z,8Z,11Z,13E,17Z-pentaenoic acid]
Type II TGF-β receptor
  degradation of type II TGF-β receptor: induced degradation of type II TGF-β receptor
Collagen Type 1; relative mRNA normalized to 36B4, 50 mg/kg PO QD Day 0-13
  Collagen Type 1 gene expression: 11.80 ± 1.78
Collagen Type 1; relative mRNA normalized to 36B4, 500 mg/kg PO QD Day 0-13
  Collagen Type 1 gene expression: 14.09 ± 2.88
UUO mice; 50 mg/kg
  kidney hydroxyproline contents compared with the Vehicle group: significant decrease
UUO mice; 50 mg/kg PO QD Day 0-13, Day 14
  Kidney hydroxyproline: 8.47 ± 2.08 μg/mg total protein
UUO mice; 500 mg/kg
  kidney hydroxyproline contents compared with the Vehicle group: significant decreases
UUO mice; 500 mg/kg PO QD Day 0-13, Day 14
  Kidney hydroxyproline: 8.59 ± 1.99 μg/mg total protein
